Laboratory results taken from ChEMBL document CHEMBL1130005, “Enantioselective synthesis and antiproliferative properties of an ilmofosine analog, 2'-(trimethylammonio)ethyl 3-(hexadecyloxy)-2-(methoxymethyl)propyl phosphate, on epithelial cancer cell growth” (J Med Chem, 1997).

Tests used:
Assay type in all cases: functional, cell-based
MCF7 [1] = assay: Inhibition of proliferative breast adenocarcinoma cell line MCF-7 after 48-h treatment; conditions: Homo sapiens, MCF7, 48 h
A549 [2] = assay: Inhibition of non-small-cell lung adenocarcinoma (A549) after 48-h treatment; conditions: Homo sapiens, A549, 48 h
A-427 [3] = assay: Inhibition of large cell lung carcinoma (A427) after 48-h treatment; conditions: Homo sapiens, A-427, 48 h
A549 [4] = assay: Inhibition of non-small-cell lung adenocarcinoma (A549); conditions: Homo sapiens
A-427 [5] = assay: Inhibition of large cell lung carcinoma (A427); conditions: Homo sapiens
MCF7 [6] = assay: Inhibition of proliferation of breast adenocarcinoma cell line MCF-7; conditions: Homo sapiens

Row | IC50 (MCF7 [1]) [µM] | IC50 (A549 [2]) [µM] | IC50 (A-427 [3]) [µM] | IC50 (A549 [4]) [µM] | IC50 (A-427 [5]) [µM] | IC50 (MCF7 [6]) [µM] | Compound
1 | 2 | 7.5 | 20 |  |  |  | CCCCCCCCCCCCCCCCOC[C@H](COC)COP(=O)([O-])OCC[N+](C)(C)C
2 |  |  |  | 10 | 20 | 2 | CCCCCCCCCCCCCCCCSCC(COC)COP(=O)([O-])OCC[N+](C)(C)C (racemic) [ILMOFOSINE]
3 |  |  |  | 10 | > 20 | 2 | CCCCCCCCCCCCCCCCOC[C@@H](COC)COP(=O)([O-])OCC[N+](C)(C)C
